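Results reflect a 48-hour exposure of cells in 96-well plates to compound at five concentrations. The concentration for 50% growth inhibition is given as GI50.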 The source made the active and inactive calls. No stated cut-off is given here; in the data, active = GI50 up to about 1.1 µM and inactive = higher.
Experiments:
Assay in all cases: inhibition of tumour cell growth, NCI panel, 48 h
KM12 = test system: KM12
T47D = test system: T47D
SNB-75 = test system: SNB-75
DU-145 = test system: DU-145
CCRF-CEM = test system: CCRF-CEM
SK-MEL-2 = test system: SK-MEL-2
SNB-19 = test system: SNB-19
HCC 2998 = test system: HCC 2998
SK-MEL-28 = test system: SK-MEL-28
NCI-H226 = test system: NCI-H226
OVCAR-3 = test system: OVCAR-3
MDA-MB-435 = test system: MDA-MB-435
SF-268 = test system: SF-268
MOLT-4 = test system: MOLT-4
SF-295 = test system: SF-295
786-0 = test system: 786-0
HOP-92 = test system: HOP-92
UO-31 = test system: UO-31
M14 = test system: M14
TK-10 = test system: TK-10

With `COc1ccc(C(=O)/C=C/c2ccc3c(c2)OCO3)c(OCc2ccccc2)c1` the GI50 (KM12) was 4.83 µM (inactive), the GI50 (T47D) was > 43.5 µM (inactive) and the GI50 (SNB-75) was > 55.1 µM (inactive). For the same compound, the GI50 (DU-145) was > 39.2 µM (inactive), the GI50 (CCRF-CEM) was 4.3 µM (inactive) and the GI50 (SK-MEL-2) was > 57.1 µM (inactive). The GI50 (SNB-19) was > 100 µM (inactive), the GI50 (HCC 2998) was 8.28 µM (inactive) and the GI50 (SK-MEL-28) was > 100 µM (inactive). For the same compound, the GI50 (NCI-H226) was 18.6 µM (inactive), the GI50 (OVCAR-3) was 19.1 µM (inactive) and the GI50 (MDA-MB-435) was 25.5 µM (inactive). For the same compound, the GI50 (SF-268) was 6.76 µM (inactive), the GI50 (MOLT-4) was 3.8 µM (inactive) and the GI50 (SF-295) was > 61.8 µM (inactive). The GI50 (786-0) was > 67.8 µM (inactive), the GI50 (HOP-92) was > 78 µM (inactive) and the GI50 (UO-31) was 37.2 µM (inactive). For the same compound, the GI50 (M14) was > 65.5 µM (inactive) and the GI50 (TK-10) was > 90.8 µM (inactive).

For `COc1ccc(/C=C/c2cnnc3ccccc23)cc1OC`, the GI50 (KM12) was > 10 µM (inactive), the GI50 (T47D) was > 10 µM (inactive) and the GI50 (SNB-75) was 5.46 µM (inactive). For the same compound, the GI50 (DU-145) was > 10 µM (inactive), the GI50 (CCRF-CEM) was > 10 µM (inactive) and the GI50 (SK-MEL-2) was > 10 µM (inactive). The GI50 (SNB-19) was > 10 µM (inactive), the GI50 (HCC 2998) was > 10 µM (inactive) and the GI50 (SK-MEL-28) was > 10 µM (inactive). The GI50 (NCI-H226) was > 10 µM (inactive), the GI50 (OVCAR-3) was > 10 µM (inactive) and the GI50 (MDA-MB-435) was > 10 µM (inactive). For the same compound, the GI50 (SF-268) was > 10 µM (inactive), the GI50 (MOLT-4) was > 10 µM (inactive) and the GI50 (SF-295) was > 10 µM (inactive). The GI50 (786-0) was > 10 µM (inactive), the GI50 (HOP-92) was 3.7 µM (inactive) and the GI50 (UO-31) was 0.0374 µM (active). For the same compound, the GI50 (M14) was > 10 µM (inactive) and the GI50 (TK-10) was > 10 µM (inactive).

With `C[N+](C)(C)CCC(=O)N1C/C(=C\c2ccccc2)C(=O)/C(=C/c2ccccc2)C1` the GI50 (KM12) was 1.6 µM (inactive), the GI50 (T47D) was 2.09 µM (inactive) and the GI50 (SNB-75) was 7.83 µM (inactive). For the same compound, the GI50 (DU-145) was 16.8 µM (inactive), the GI50 (CCRF-CEM) was 1.64 µM (inactive) and the GI50 (SK-MEL-2) was 15.8 µM (inactive). For the same compound, the GI50 (SNB-19) was 5.38 µM (inactive), the GI50 (HCC 2998) was 3.47 µM (inactive) and the GI50 (SK-MEL-28) was 8.05 µM (inactive). The GI50 (NCI-H226) was 10 µM (inactive), the GI50 (OVCAR-3) was 3.82 µM (inactive) and the GI50 (MDA-MB-435) was 2.29 µM (inactive). For the same compound, the GI50 (SF-268) was 5.14 µM (inactive), the GI50 (MOLT-4) was 2.45 µM (inactive) and the GI50 (SF-295) was 3.78 µM (inactive). For the same compound, the GI50 (786-0) was 2.38 µM (inactive), the GI50 (HOP-92) was 20.6 µM (inactive) and the GI50 (UO-31) was 18.9 µM (inactive). For the same compound, the GI50 (M14) was 2.72 µM (inactive) and the GI50 (TK-10) was 14.4 µM (inactive).

With `Nc1ccc2c(c1)C(=O)c1ccc(F)cc1-2` the GI50 (KM12) was > 100 µM (inactive), the GI50 (T47D) was > 100 µM (inactive) and the GI50 (SNB-75) was > 100 µM (inactive). The GI50 (DU-145) was > 100 µM (inactive), the GI50 (CCRF-CEM) was > 100 µM (inactive) and the GI50 (SK-MEL-2) was > 100 µM (inactive). For the same compound, the GI50 (SNB-19) was > 100 µM (inactive), the GI50 (HCC 2998) was > 100 µM (inactive) and the GI50 (SK-MEL-28) was > 100 µM (inactive). The GI50 (NCI-H226) was > 100 µM (inactive), the GI50 (OVCAR-3) was > 100 µM (inactive) and the GI50 (MDA-MB-435) was > 100 µM (inactive). For the same compound, the GI50 (SF-268) was > 100 µM (inactive), the GI50 (MOLT-4) was 57.8 µM (inactive) and the GI50 (SF-295) was > 100 µM (inactive). The GI50 (786-0) was > 100 µM (inactive), the GI50 (HOP-92) was > 100 µM (inactive) and the GI50 (UO-31) was > 100 µM (inactive). For the same compound, the GI50 (M14) was > 100 µM (inactive) and the GI50 (TK-10) was > 100 µM (inactive).

With `CN(C)c1ccc2c(SCC(=O)OCC(=O)[C@@]3(O)CC[C@H]4[C@@H]5CCC6=CC(=O)C=C[C@]6(C)[C@H]5C(=O)C[C@@]43C)c3ccc(N(C)C)cc3nc2c1` the GI50 (KM12) was 6.5 µM (inactive), the GI50 (T47D) was 17.4 µM (inactive) and the GI50 (SNB-75) was 20.6 µM (inactive). The GI50 (DU-145) was 11.5 µM (inactive), the GI50 (CCRF-CEM) was 1.35 µM (inactive) and the GI50 (SK-MEL-2) was 24.5 µM (inactive). For the same compound, the GI50 (SNB-19) was 23.7 µM (inactive), the GI50 (HCC 2998) was 6 µM (inactive) and the GI50 (SK-MEL-28) was 21.6 µM (inactive). The GI50 (NCI-H226) was 14.8 µM (inactive), the GI50 (OVCAR-3) was 5.24 µM (inactive) and the GI50 (MDA-MB-435) was 17 µM (inactive). For the same compound, the GI50 (SF-268) was 5.82 µM (inactive), the GI50 (MOLT-4) was 2.65 µM (inactive) and the GI50 (SF-295) was 14 µM (inactive). For the same compound, the GI50 (786-0) was 4.16 µM (inactive), the GI50 (HOP-92) was 30.7 µM (inactive) and the GI50 (UO-31) was 10.3 µM (inactive). For the same compound, the GI50 (M14) was 27.8 µM (inactive) and the GI50 (TK-10) was 16.3 µM (inactive).

For `CC1(C)[C@@H]2CC[C@@]1(C)C1(S[S+]1[O-])C21Cc2ccccc2C1` (stereo not given in full), the GI50 (KM12) was 56.1 µM (inactive), the GI50 (T47D) was 21.6 µM (inactive) and the GI50 (SNB-75) was 31 µM (inactive). For the same compound, the GI50 (DU-145) was 21.3 µM (inactive), the GI50 (CCRF-CEM) was 5.25 µM (inactive) and the GI50 (SK-MEL-2) was 17.2 µM (inactive). The GI50 (SNB-19) was > 100 µM (inactive), the GI50 (HCC 2998) was 18.5 µM (inactive) and the GI50 (SK-MEL-28) was 23.1 µM (inactive). For the same compound, the GI50 (NCI-H226) was > 100 µM (inactive), the GI50 (OVCAR-3) was 31.7 µM (inactive) and the GI50 (MDA-MB-435) was 29.4 µM (inactive). The GI50 (SF-268) was 33.1 µM (inactive), the GI50 (MOLT-4) was 16.3 µM (inactive) and the GI50 (SF-295) was 57.1 µM (inactive). For the same compound, the GI50 (786-0) was 16.4 µM (inactive), the GI50 (HOP-92) was 23.3 µM (inactive) and the GI50 (UO-31) was 21.4 µM (inactive). The GI50 (M14) was 33.4 µM (inactive) and the GI50 (TK-10) was 18.8 µM (inactive).

`Nc1cccc(-c2cc(O)c3cc4c(cc3n2)OCO4)c1` was tested, and the GI50 (KM12) was 0.593 µM (active), the GI50 (T47D) was > 100 µM (inactive) and the GI50 (SNB-75) was 0.0995 µM (active). The GI50 (DU-145) was 0.64 µM (active), the GI50 (CCRF-CEM) was 0.665 µM (active) and the GI50 (SK-MEL-2) was 0.45 µM (active). For the same compound, the GI50 (SNB-19) was 2.19 µM (inactive), the GI50 (HCC 2998) was 1.83 µM (inactive) and the GI50 (SK-MEL-28) was 2.19 µM (inactive). The GI50 (NCI-H226) was 1.85 µM (inactive), the GI50 (OVCAR-3) was 0.188 µM (active) and the GI50 (MDA-MB-435) was 0.16 µM (active). The GI50 (SF-268) was 1.77 µM (inactive), the GI50 (MOLT-4) was 2.07 µM (inactive) and the GI50 (SF-295) was 2.87 µM (inactive). The GI50 (786-0) was 2.16 µM (inactive), the GI50 (HOP-92) was 1.02 µM (active) and the GI50 (UO-31) was 12.5 µM (inactive). For the same compound, the GI50 (M14) was 0.993 µM (active) and the GI50 (TK-10) was 6.64 µM (inactive).

— ChEMBL document CHEMBL1201862, “PubChem BioAssay data set” (2004)
